pIC50: −log10 of the molar value.
Tests used:
IGF1R tyrosine kinase = biological target: T1, IGF1R tyrosine kinase (Homo sapiens, UniProt P08069); assay: IGF1R tyrosine kinase assay (Kinase-Glo ATP depletion or PT66/PT100 AlphaScreen); conditions: biochemical tyrosine kinase assay
T1 construct: 6×His- or GST-tagged kinase domain fragments of the corresponding RTKs expressed in baculovirus system; host or cells: baculovirus system
Procedure, shortened: (§1)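 Inhibition measured on recombinant RTK kinase domains phosphorylating poly(Glu-Tyr) at 10 μM ATP, either by ATP depletion luminescence (37 °C, 60 min) or by PT66/PT100 AlphaScreen with biotinylated substrate (RT, 30 min plus 60 min bead step). For Alk, InsR and Jak2, enzyme titrated to ≤30% ATP consumption; IC50 from nonlinear regression.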

InsR = biological target: T2, InsR (Homo sapiens, UniProt P06213); assay: Tyrosine kinase assay (Kinase-Glo or AlphaScreen), InsR; conditions: biochemical tyrosine kinase assay
T2 construct: 6×His- or GST-tagged kinase domain fragments of the corresponding RTKs expressed in baculovirus system; host or cells: baculovirus system
T2 sequence (P06213 1023-1298 limits assumed, species assumed): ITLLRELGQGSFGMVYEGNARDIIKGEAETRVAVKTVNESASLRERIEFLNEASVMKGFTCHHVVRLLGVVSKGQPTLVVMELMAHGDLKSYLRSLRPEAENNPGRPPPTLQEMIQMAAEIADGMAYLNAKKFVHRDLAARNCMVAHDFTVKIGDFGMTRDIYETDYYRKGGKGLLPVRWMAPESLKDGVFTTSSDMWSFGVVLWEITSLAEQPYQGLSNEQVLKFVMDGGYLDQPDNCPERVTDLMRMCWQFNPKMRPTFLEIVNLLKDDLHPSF
Procedure, shortened: as §1

Alk = biological target: T3, Alk (Homo sapiens, UniProt Q9UM73); assay: Tyrosine kinase assay (Kinase-Glo or AlphaScreen), Alk; conditions: biochemical tyrosine kinase assay
T3 construct: 6×His- or GST-tagged kinase domain fragments of the corresponding RTKs expressed in baculovirus system; host or cells: baculovirus system
T3 sequence (Q9UM73 1116-1392 limits assumed, species assumed): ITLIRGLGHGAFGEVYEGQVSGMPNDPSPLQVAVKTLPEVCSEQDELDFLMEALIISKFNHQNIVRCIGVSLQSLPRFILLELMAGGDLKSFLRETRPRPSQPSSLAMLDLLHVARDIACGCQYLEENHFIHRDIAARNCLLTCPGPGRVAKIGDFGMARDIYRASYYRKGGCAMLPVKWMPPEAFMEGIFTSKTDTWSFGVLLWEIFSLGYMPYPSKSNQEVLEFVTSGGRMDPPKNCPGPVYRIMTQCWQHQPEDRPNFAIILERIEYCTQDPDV
Procedure, shortened: as §1

IGF1 receptor = biological target: T4, IGF1 receptor (Homo sapiens, UniProt P08069); assay: ELISA-based assay of IGF1 receptor autophosphorylation inhibition in cells; assay type: cell-based; conditions: IGF1R phosphorylation inhibition in MCF7 cells
T4 construct: MCF7 human breast cancer cells expressing IGF1 receptor; endogenous in cells; host or cells: MCF7 human breast cancer cells
T4 sequence (P08069 741-1367 limits assumed): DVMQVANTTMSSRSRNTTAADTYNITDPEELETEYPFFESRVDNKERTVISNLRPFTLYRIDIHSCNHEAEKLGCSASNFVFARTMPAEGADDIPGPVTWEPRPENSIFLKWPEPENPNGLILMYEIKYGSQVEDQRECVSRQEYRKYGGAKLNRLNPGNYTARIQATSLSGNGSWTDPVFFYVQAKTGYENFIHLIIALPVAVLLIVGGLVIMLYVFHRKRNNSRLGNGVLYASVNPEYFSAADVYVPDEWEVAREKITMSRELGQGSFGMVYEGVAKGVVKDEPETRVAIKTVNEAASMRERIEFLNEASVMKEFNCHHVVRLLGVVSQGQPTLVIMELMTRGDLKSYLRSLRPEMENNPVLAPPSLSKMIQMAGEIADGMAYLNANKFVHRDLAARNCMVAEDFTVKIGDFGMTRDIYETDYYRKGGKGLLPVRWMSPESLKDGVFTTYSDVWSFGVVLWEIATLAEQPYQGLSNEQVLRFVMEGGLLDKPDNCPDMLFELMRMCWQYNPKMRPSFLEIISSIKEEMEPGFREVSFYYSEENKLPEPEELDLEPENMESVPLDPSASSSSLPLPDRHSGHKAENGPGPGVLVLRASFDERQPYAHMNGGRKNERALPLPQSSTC
T4 sequence (P08069 31-736 partner limits assumed): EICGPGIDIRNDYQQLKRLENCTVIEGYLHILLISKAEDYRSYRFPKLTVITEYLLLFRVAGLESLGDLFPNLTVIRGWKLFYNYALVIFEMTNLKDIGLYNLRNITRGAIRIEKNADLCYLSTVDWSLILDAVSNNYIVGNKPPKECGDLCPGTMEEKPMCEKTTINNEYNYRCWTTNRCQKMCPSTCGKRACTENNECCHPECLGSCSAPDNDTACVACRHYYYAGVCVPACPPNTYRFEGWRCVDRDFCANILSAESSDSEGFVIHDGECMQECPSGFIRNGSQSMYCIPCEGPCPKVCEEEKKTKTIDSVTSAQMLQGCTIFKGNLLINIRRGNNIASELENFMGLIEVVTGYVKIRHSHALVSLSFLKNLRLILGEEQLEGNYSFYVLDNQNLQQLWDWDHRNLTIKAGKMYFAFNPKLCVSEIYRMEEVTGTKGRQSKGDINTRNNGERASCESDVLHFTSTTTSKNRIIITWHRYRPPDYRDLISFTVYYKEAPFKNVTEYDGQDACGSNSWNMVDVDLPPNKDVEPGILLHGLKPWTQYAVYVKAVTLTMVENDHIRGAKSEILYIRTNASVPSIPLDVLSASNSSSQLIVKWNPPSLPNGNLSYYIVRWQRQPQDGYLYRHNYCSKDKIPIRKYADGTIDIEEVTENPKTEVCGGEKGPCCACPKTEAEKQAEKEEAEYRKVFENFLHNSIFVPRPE
Description: In another embodiment, compounds that interact with the IGF1R kinase domain are tested in a cell-based assay system. In accordance with this embodiment, cells expressing a full-length IGF1 receptor or a fragment thereof containing the IGF1R kinase domain, are contacted with a candidate or a control compound and the ability of the compound to block tyrosine kinase activity of IGF1R within a cell is determined. This assay may be used to screen a single compound or a large library of candidate compounds. Typically, the cells or cell lines are of mammalian origin and they can express the IGF1 receptor, or functional IGF1R kinase domain fragment, endogenously or be genetically engineered to express the IGF1R, or functional fragment thereof. The ability of the candidate compound to inhibit IGF1R kinase activity can be determined by methods known to those skilled in the art. For example, the inhibition can be determined by ELISA-type assay or Western blot analysis with cell lysates or immunoprecipitated IGF1R receptor using various anti-IGF1R and anti-phosphotyrosine antibodies.
In general, cells expressing IGF1R are treated with modulators (i.e., inhibitors or activators) of IGF1R kinase activity and cell lysates are produced from these treated cells. IGF1Rs are isolated from the lysate by immunoprecipitation and analyzed for phosphotyrosine content. Alternatively, or in addition, cellular protein substrates phosphorylated by IGFR may be immunoprecipitated from the lysates and their degree of tyrosine phosphorylation determined.
MCF7 human breast cancer cells expressing IGF1 receptor or an engineered […] fibroblast cell line NIH 3T3 overexpressing full-length IGF1R are an exemplary cellular models in which to perform such assays. Such cells may be maintained in DMEM medium supplemented with 10% fetal bovine serum (FBS), 4% L-glutamine, 1% antibiotic solution (penicillin-Streptomycin) in a humidified atmosphere of 95% air and 5% CO2 at 37° C. Confluent cells in T175 cell culture flasks are incubated overnight with serum-free DMEM medium. After the serum starvation step, the cells are detached and split into a standard 96-well cell culture plate (one T175 flask per plate, 30 μl of cell suspension per plate well). Tested inhibitors from their 10 mM stock solutions in DMSO are subsequently added at various concentrations in serum-free DMEM medium for 1 hour incubation at 37° C. in CO2-incubator; total DMSO concentration in both treated and control wells is adjusted to 1%. Cells are then stimulated for 10 minutes with 100 nM IGF-1 added in 30 μl DMEM. After treatment, cells are lysed by addition of 30 μl of 4× lysis buffer (phosphate-buffered saline (PBS), 2% Triton-X100, 1 mM phenylmethylsulphonyl fluoride (PMSF) and 8 mM activated orthovanadate), mixing and incubation for 15 minute at room temperature. To prepare assay plates, 96-well ELISA Plates (Pierce Chemical, Reacti-bind plates) were coated by goat-anti-rabbit Fc antiserum by adding 0.25 μg antiserum per well in 0.2M sodium bicarbonate buffer per well and incubating overnight at 4° C. After incubation, the plate is washed three times by PBS with 0.02% Tween-20, supplied with 25 ng/50 μl per well of anti-IGF1R antibody (C-20, Santa Cruz Biotechnology) and incubated for several hours to overnight. Prior to the addition of the prepared cellular lysates, the antibody solution is aspirated, wells washed with PBS and supplied with 25 μl per well of Starting Block buffer (Pierce Chemical).
To measure tyrosine phosphorylation of the beta-subunits of the IGF1R, 25-50 μl of the lysates are transferred from the stimulation plate to the wells of the prepared assay plate and incubated overnight at 4° C. The wells are washed with PBS with 0.02% Tween-20, incubated with 50 μl of 1:3000 dilution of anti-phosphotyrosine 4G10-HRP antibody conjugate (Upstate Biotechnology) for 2 hours at room temperature and washed again. […]

Jak2 = biological target: T5, Jak2 (Homo sapiens, UniProt O60674); assay: Tyrosine kinase assay (Kinase-Glo or AlphaScreen), Jak2; conditions: biochemical tyrosine kinase assay
T5 construct: 6×His- or GST-tagged kinase domain fragments of the corresponding RTKs expressed in baculovirus system; host or cells: baculovirus system
T5 sequence (O60674 849-1124 limits assumed, species assumed): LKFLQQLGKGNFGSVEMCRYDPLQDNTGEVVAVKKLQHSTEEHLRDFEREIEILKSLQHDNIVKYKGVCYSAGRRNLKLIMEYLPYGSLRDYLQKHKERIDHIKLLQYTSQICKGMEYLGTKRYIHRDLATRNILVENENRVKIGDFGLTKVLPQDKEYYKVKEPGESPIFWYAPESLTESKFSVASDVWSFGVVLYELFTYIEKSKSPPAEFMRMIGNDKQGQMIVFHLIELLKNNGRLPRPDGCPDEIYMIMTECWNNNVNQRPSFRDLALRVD
Procedure, shortened: as §1

[1] = test system: CHO (chinese hamster ovary); assay: Cell proliferation inhibition, Cell Titer-Glo, CHO; assay type: cell-based; conditions: Cricetulus griseus; cell proliferation assay, CHO cells
Description: (§2) IGF1R and other tyrosine kinase inhibitors can inhibit the proliferation of certain cancer cell lines indicating their possible therapeutic utility for treating the corresponding cancer types. Cancer cell lines of interest and control normal lines, including CHO, HEK293, BA/F3, MM1, H929, COLO205, PC3, DU145, MCF7, Panc1, ACHN, Hep G2, H460, K562, TT, U87-G, CAOV-3, SK-MEL5, Karpas 299, are plated in white, clear-bottomed 384-well cell culture plates at 2500-5000 cells per well and supplied with dilutions of tested compounds After a desired period of time (typically 3 days), the number of viable cells is quantitated by using Cell Titer-Glo Luminescent Cell Viability Assay (Promega), a cell proliferation assay system based on detection of total amount of ATP present as a measure of cell metabolic activity. The plated cells are mixed with the Cell Titer-Glo developing reagent and counted in a luminescence multiwell plate reader according to the standard manufacturer's protocol to generate IC50 curves for cell proliferation inhibition.
(§3) IGF1R and other tyrosine kinase inhibitors can inhibit the proliferation of certain cancer cell lines indicating their possible therapeutic utility for treating the corresponding cancer types. Cancer cell lines of interest and control normal lines, including CHO, HEK293, BA/F3, COLO205, PC3, DU145, MCF7, Panc1, ACHN, Hep G2, H460, K562, TT, U87-MG, CAOV-3, SK-MEL5, Karpas 299 and human multiple myeloma cell lines H929, MM1s, MM1r, UTMC2, CPM2, KMS11, My5, KMS12PE, My7, JJN3, KMS18, U266, SKMM2, RPMI-8226 are plated in white, clear-bottomed 384-well cell culture plates at 2500-5000 cells per well and supplied with dilutions of tested compounds After a desired period of time (typically 3 days), the number of viable cells is quantitated by using Cell Titer-Glo Luminescent Cell Viability Assay (Promega), a cell proliferation assay system based on detection of total amount of ATP present as a measure of cell metabolic activity. The plated cells are mixed with the Cell Titer-Glo developing reagent and counted in a luminescence multiwell plate reader according to the standard manufacturer's protocol to generate IC50 curves for cell proliferation inhibition. Results are typically reported as percent of growth (% viability =(OD72h(compound)−ODday0))/(OD72h(no compound)−ODday0). Alternatively, viable cells are quantitated by using the conventional colorimetric MTT assay. The MTT assay is based on the cleavage of the yellow tetrazolium salt MTT to purple formazan crystal by metabolic active cells. The formazan is then solubilized, and the concentration determined by optical density at 570 nm. The cells plated and incubated with a compound as described above are supplemented with the solution of MTT and incubated for 2-3 hours. The growth medium is removed and dimethyl sulfoxide is added into each well to dissolve the formazan. The absorbance is measured on an ELISA plate reader with a test wavelength of 570 nm and a background subtraction wavelength of 630 nm to obtain sample signal (OD570-OD630). […] The results are reported in terms of IC50 value for a particular compound and a cell line in the standard 3-day proliferation assay using Cell Titer-Glo. […] The results are reported in terms of IC50 value for a particular compound and a cell line in the standard 3-day proliferation assay using MTT assay.

H929 (multiple myeloma) = assay: Cell proliferation inhibition, Cell Titer-Glo, H929; assay type: cell-based; conditions: Homo sapiens, NCI-H929; cell proliferation assay, H929 cells
Description: as §2, §3

T1 sequence (P08069 999-1274 limits assumed): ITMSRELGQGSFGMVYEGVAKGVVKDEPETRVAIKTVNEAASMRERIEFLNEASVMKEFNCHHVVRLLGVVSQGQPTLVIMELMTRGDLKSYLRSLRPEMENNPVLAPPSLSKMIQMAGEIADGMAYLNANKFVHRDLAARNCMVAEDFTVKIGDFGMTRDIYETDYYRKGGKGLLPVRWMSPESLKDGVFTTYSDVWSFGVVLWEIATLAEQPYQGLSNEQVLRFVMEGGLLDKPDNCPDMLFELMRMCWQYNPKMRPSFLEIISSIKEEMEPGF

SMILES	pIC50 (IGF1R tyrosine kinase)	pIC50 (InsR)	pIC50 (Alk)	pIC50 (IGF1 receptor)	pIC50 (Jak2)	pIC50 [1]	pIC50 (H929 (multiple myeloma))
O=C1NC(=O)c2cc3[nH]c(-c4c(NC[C@@H](O)c5cccc(Cl)c5)cc[nH]c4=O)nc3cc21 [compound 11]	< 4.82	4.82 to 5.30	4.82 to 5.30	5.30 to 6.30	4.82 to 5.30	–	–
O=C1c2cc3nc(-c4c(NC[C@@H](O)c5cccc(Cl)c5)cc[nH]c4=O)[nH]c3cc2C(=O)N1CCCN1CCOCC1 [compound 12]	< 4.82	< 4.82	< 4.82	5.30 to 6.30	< 4.82	–	–
O=C1c2cc3nc(-c4c(NC[C@@H](O)c5cccc(Cl)c5)cc[nH]c4=O)[nH]c3cc2C(=O)N1CC1CCN(CCO)CC1 [compound 13]	> 6.30	> 6.30	5.30 to 6.30	5.30 to 6.30	5.30 to 6.30	–	–
CN1CCC(N2C(=O)c3cc4nc(-c5c(NCC(O)COc6ccc(C(C)(C)C)cc6)cc[nH]c5=O)[nH]c4cc3C2=O)CC1 (centres unmarked) [compound 14]	5.30 to 6.30	5.30 to 6.30	< 4.82	5.30 to 6.30	5.30 to 6.30	–	–
CN1CCCC1CCN1C(=O)c2cc3nc(-c4c(NC[C@@H](O)c5cccc(Cl)c5)cc[nH]c4=O)[nH]c3cc2C1=O (some centres unmarked) [compound 18]	> 6.30	5.30 to 6.30	5.30 to 6.30	< 4.82	5.30 to 6.30	–	–
CN1CCN(CCCN2C(=O)c3cc4nc(-c5c(NC[C@@H](O)c6cccc(Cl)c6)cc[nH]c5=O)[nH]c4cc3C2=O)CC1 [compound 19]	> 6.30	5.30 to 6.30	5.30 to 6.30	< 4.82	5.30 to 6.30	–	–
CN1CCN(CCN2C(=O)c3cc4nc(-c5c(NC[C@@H](O)c6cccc(Cl)c6)cc[nH]c5=O)[nH]c4cc3C2=O)CC1 [compound 20]	5.30 to 6.30	5.30 to 6.30	5.30 to 6.30	< 4.82	5.30 to 6.30	–	–
CN1CCC(N2C(=O)c3cc4nc(-c5c(NC[C@@H](O)COc6ccc(F)cc6)cc[nH]c5=O)[nH]c4cc3C2=O)CC1 [compound 21]	5.30 to 6.30	5.30 to 6.30	5.30 to 6.30	4.82 to 5.30	5.30 to 6.30	–	–
CN1CCC(N2C(=O)c3cc4nc(-c5c(NC[C@H](O)COc6ccc(F)cc6)cc[nH]c5=O)[nH]c4cc3C2=O)CC1 [compound 22]	5.30 to 6.30	5.30 to 6.30	5.30 to 6.30	< 4.82	5.30 to 6.30	–	–
CN1CCC(N2C(=O)c3cc4nc(-c5c(NCC(O)COc6ccccc6)cc[nH]c5=O)[nH]c4cc3C2=O)CC1 (centres unmarked) [compound 23]	5.30 to 6.30	5.30 to 6.30	4.82 to 5.30	4.82 to 5.30	5.30 to 6.30	–	–
CN1CCC(N2Cc3cc4nc(-c5c(NC[C@@H](O)COc6cc(F)ccc6Cl)cc[nH]c5=O)[nH]c4cc3C2=O)CC1 [compound 150]	> 6.30	> 6.30	5.30 to 6.30	–	> 6.30	< 4.82	4.82 to 5.30
CN1CCC(N2Cc3cc4nc(-c5c(NC[C@@H](O)COc6cc(C(F)(F)F)ccc6Cl)cc[nH]c5=O)[nH]c4cc3C2=O)CC1 [compound 151]	> 6.30	> 6.30	4.82 to 5.30	–	> 6.30	< 4.82	4.82 to 5.30
CN1CCC(N2Cc3cc4nc(-c5c(NC[C@@H](O)COc6cc(F)cc(F)c6Cl)cc[nH]c5=O)[nH]c4cc3C2=O)CC1 [compound 152]	> 6.30	> 6.30	5.30 to 6.30	–	> 6.30	< 4.82	4.82 to 5.30
CN1CCC(N2Cc3cc4nc(-c5c(NC[C@@H](O)COc6c(F)cccc6Cl)cc[nH]c5=O)[nH]c4cc3C2=O)CC1 [compound 153]	> 6.30	> 6.30	4.82 to 5.30	–	> 6.30	< 4.82	4.82 to 5.30
CN1CCC(N2Cc3cc4nc(-c5c(NC[C@@H](O)COc6cccc(C(F)(F)F)c6Cl)cc[nH]c5=O)[nH]c4cc3C2=O)CC1 [compound 154]	> 6.30	> 6.30	< 4.82	–	> 6.30	< 4.82	4.82 to 5.30
CN1CCC(N2Cc3cc4nc(-c5c(NC[C@@H](O)COc6c(F)ccc(F)c6Cl)cc[nH]c5=O)[nH]c4cc3C2=O)CC1 [compound 155]	> 6.30	> 6.30	4.82 to 5.30	–	> 6.30	< 4.82	4.82 to 5.30
